Results on 18 molecules are retold here after EP3436445B1, “HISTONE DEMETHYLASE INHIBITORS” (Celgene Quanticel Research, Inc., priority 2016, dated 2017).

Molecules are shown by their SMILES. pIC50: −log10 of the molar value.

The target in the experiment is T1, JMJD3 (Homo sapiens, UniProt O15054).
T1 construct: purchased BPS Bioscience 50115
T1 sequence (O15054 1043-1682 isoform O15054-1): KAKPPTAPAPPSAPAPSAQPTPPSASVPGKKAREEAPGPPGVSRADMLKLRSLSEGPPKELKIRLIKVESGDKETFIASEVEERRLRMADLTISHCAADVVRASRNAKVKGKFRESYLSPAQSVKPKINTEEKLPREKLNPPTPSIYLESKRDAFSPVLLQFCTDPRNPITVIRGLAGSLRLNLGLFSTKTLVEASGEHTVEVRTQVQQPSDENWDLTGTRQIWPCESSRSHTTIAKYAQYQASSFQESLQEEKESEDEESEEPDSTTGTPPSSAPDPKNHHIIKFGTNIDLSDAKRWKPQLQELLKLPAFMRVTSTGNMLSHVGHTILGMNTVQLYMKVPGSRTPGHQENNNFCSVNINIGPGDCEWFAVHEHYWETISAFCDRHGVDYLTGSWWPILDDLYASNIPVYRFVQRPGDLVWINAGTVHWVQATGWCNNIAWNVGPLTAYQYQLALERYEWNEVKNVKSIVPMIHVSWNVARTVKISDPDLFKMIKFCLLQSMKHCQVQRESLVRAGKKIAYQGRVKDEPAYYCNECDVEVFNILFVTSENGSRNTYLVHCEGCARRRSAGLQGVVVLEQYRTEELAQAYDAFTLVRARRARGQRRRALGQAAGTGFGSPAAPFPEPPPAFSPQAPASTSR
The experiment can be described thus: JMJD3 in vitro enzyme inhibition assay (AlphaScreen). Format: biochemical. To be noted: Table 5; 1 nM JMJD3, H3K27me3-biotin labeled peptide. From the text:
This assay determines the ability of a test compound to inhibit Jarid1B, JMJD2C and JMJD3 demethylase activity. Baculovirus expressed Jarid1B (GenBank Accession #NM-006618, AA 2-751) was purchased from BPS Bioscience (Cat #50121) or custom made by MolecularThroughput. Baculovirus expressed JMJD2C (GenBank Accession #BC143571, AA 2-372) was purchased from BPS Bioscience (Cat#50105). Baculovirus expressed JMJD3 (GenBank Accession #NM-001080424, AA1043-end) was purchased from BPS Bioscience (Cat#50115).
The ability of test compounds to inhibit the activity of JMJD3 was determined in 384-well plate format under the following reaction conditions: 1 nM JMJD3, 250 nM H3K27me3-biotin labeled peptide (Anaspec cat # 64367), 1 µM alpha-ketoglutaric acid in assay buffer of 50 mM HEPES, pH7.3, 0.005% Brij35, 0.5 mM TCEP, 0.2 mg/ml BSA, 50 µM sodium L-ascorbate, 5 µM ammonium iron(II) sulfate. Reaction product is determined quantitatively by AlphaScreen detection after the addition of detection reagents anti-H3K27me1 antibody, 5 µg/ml AlphaScreen® Streptavidin-coated Donor beads, and 5 µg/ml AlphaScreen® Protein A Acceptor beads in 50 mM HEPES, pH7.3, 10 mM NaCl, 0.005% Brij35, 10 mM EDTA, 2 mg/ml BSA.
The assay reaction was initiated by the following: 3 µl of the mixture of 750 nM H3K27me3-biotin labeled peptide and 3 µM alpha-ketoglutaric acid with 3 µl of 11-point serial diluted inhibitor in 3% DMSO are added to each well of 384 well Proxiplate (Perkin Elmer), followed by the addition of 3 µl of 3 nM JMJD3 to initiate the reaction. The reaction mixture is incubated at room temperature for 20 minutes, and terminated by the addition of 3 µl of appropriate dilution of anti H3K27me1 antibody in 50 mM HEPES, pH7.3, 10 mM NaCl, 0.005% Brij35, 10 mM EDTA, 2 mg/ml BSA. Plates will then incubated at room temperature for 1 hour, followed by addition of 3 µl of 25 µg/ml AlphaScreen® Streptavidin-coated Donor beads and AlphaScreen® Protein A Acceptor beads in 50 mM HEPES, pH7.3, 10 mM NaCl, 0.005% Brij35, 10 mM EDTA, 2 mg/ml BSA. Plates will then be read by EnVision Multilabel Reader in AlphaScreen mode after minimum 2 hour incubation at room temperature. The AlphaScreen signal for each well is used to determine inhibition constant (IC50).
A general note: Alpha assays give light when donor and acceptor beads are brought close together.
As usually defined, the pIC50 is −log10 of the IC50, conventionally taken in molar units. High values mean a low IC50, low ones a high IC50. In turn, `O=C(c1ccccc1)N1CCC[C@H](n2cnc(-c3cc(-c4nn[nH]c4C(F)(F)F)ccn3)c2)C1` [Example 90, 2-{1-[(3S)-1-benzoylpiperidin-3-yl]-1H-imidazol-4-yl}-4-[5-(trifluoromethyl)-1H-1,2,3-triazol-4-yl]pyridine] gave a pIC50 of less than 5.00.
The value for `Cc1ccc(CCn2cnc(-c3cc(-c4nn[nH]c4C(F)(F)F)ccn3)c2)cc1` [Example 91, 2-{1-[2-(4-methylphenyl)ethyl]-1H-imidazol-4-yl}-4-[5-(trifluoromethyl)-1H-1,2,3-triazol-4-yl]pyridine] was less than 5.00.
The value for `FC(F)(F)c1[nH]nnc1-c1ccnc(-c2cn(CCc3ccc(Cl)cc3)cn2)c1` [Example 92, 2-{1-[2-(4-chlorophenyl)ethyl]-1H-imidazol-4-yl}-4-[5-(trifluoromethyl)-1H-1,2,3-triazol-4-yl]pyridine] was less than 5.00; that for `COc1ccc(CCn2cnc(-c3cc(-c4nn[nH]c4C(F)(F)F)ccn3)c2)cc1` [Example 93, 2-{1-[2-(4-methoxyphenyl)ethyl]-1H-imidazol-4-yl}-4-[5-(trifluoromethyl)-1H-1,2,3-triazol-4-yl]pyridine] was less than 5.00.
The molecule `FC(F)(F)c1ccc(CCn2cnc(-c3cc(-c4nn[nH]c4C(F)(F)F)ccn3)c2)cc1` [Example 94, 4-[5-(trifluoromethyl)-1H-1,2,3-triazol-4-yl]-2-(1-{2-[4-(trifluoromethyl)phenyl]ethyl}-1H-imidazol-4-yl)pyridine] gave a pIC50 of less than 5.00.
Molecule `CCc1ccc(CCn2cnc(-c3cc(-c4nn[nH]c4C(F)(F)F)ccn3)c2)cc1` [Example 95, 2-{1-[2-(4-ethylphenyl)ethyl]-1H-imidazol-4-yl}-4-[5-(trifluoromethyl)-1H-1,2,3-triazol-4-yl]pyridine] showed a negative logarithm of the IC50 (pIC50) of less than 5.00.
`CC(C)(C)c1ccc(CCn2cnc(-c3cc(-c4nn[nH]c4C(F)(F)F)ccn3)c2)cc1` [Example 96, 2-{1-[2-(4-tert-butylphenyl)ethyl]-1H-imidazol-4-yl}-4-[5-(trifluoromethyl)-1H-1,2,3-triazol-4-yl]pyridine] had a pIC50 of less than 5.00.
Then `Cn1cnc(-c2cc(-c3nn[nH]c3C(F)(F)F)ccn2)c1-c1ccc(F)cc1` [Example 97, 2-[5-(4-fluorophenyl)-1-methyl-1H-imidazol-4-yl]-4-[5-(trifluoromethyl)-1H-1,2,3-triazol-4-yl]pyridine], with less than 5.00; and `FC(F)(F)c1[nH]nnc1-c1ccnc(-c2cn(CC3CCOc4ccccc43)cn2)c1` (stereo not drawn) [Example 98, 2-{1-[(3,4-dihydro-2H-1-benzopyran-4-yl)methyl]-1H-imidazol-4-yl}-4-[5-(trifluoromethyl)-1H-1,2,3-triazol-4-yl]pyridine], with less than 5.00; and `Fc1cccc2c1CCCC2Cn1cnc(-c2cc(-c3nn[nH]c3C(F)(F)F)ccn2)c1` (stereo not drawn) [Example 99, 2-{1-[(5-fluoro-1,2,3,4-tetrahydronaphthalen-1-yl)methyl]-1H-imidazol-4-yl}-4-[5-(trifluoromethyl)-1H-1,2,3-triazol-4-yl]pyridine], with less than 5.00.
Then `Fc1ccc2c(c1)CCCC2Cn1cnc(-c2cc(-c3nn[nH]c3C(F)(F)F)ccn2)c1` (stereo not drawn) [Example 100, 2-{1-[(6-fluoro-1,2,3,4-tetrahydronaphthalen-1-yl)methyl]-1H-imidazol-4-yl}-4-[5-(trifluoromethyl)-1H-1,2,3-triazol-4-yl]pyridine], with less than 5.00.
Turning to `Fc1ccc2c(c1)C(Cn1cnc(-c3cc(-c4nn[nH]c4C(F)(F)F)ccn3)c1)CCC2` (stereo not drawn) [Example 101, 2-{1-[(7-fluoro-1,2,3,4-tetrahydronaphthalen-1-yl)methyl]-1H-imidazol-4-yl}-4-[5-(trifluoromethyl)-1H-1,2,3-triazol-4-yl]pyridine], the pIC50 is less than 5.00.
The value for `Cc1ccc2c(c1)CCCC2Cn1cnc(-c2cc(-c3nn[nH]c3C(F)(F)F)ccn2)c1` (stereo not drawn) [Example 102, 2-{1-[(6-methyl-1,2,3,4-tetrahydronaphthalen-1-yl)methyl]-1H-imidazol-4-yl}-4-[5-(trifluoromethyl)-1H-1,2,3-triazol-4-yl]pyridine] was less than 5.00; that for `Cc1ccc2c(c1)C(Cn1cnc(-c3cc(-c4nn[nH]c4C(F)(F)F)ccn3)c1)CCC2` (stereo not drawn) [Example 103, 2-{1-[(7-methyl-1,2,3,4-tetrahydronaphthalen-1-yl)methyl]-1H-imidazol-4-yl}-4-[5-(trifluoromethyl)-1H-1,2,3-triazol-4-yl]pyridine] was less than 5.00.
Then `COc1cccc2c1CCCC2Cn1cnc(-c2cc(-c3nn[nH]c3C(F)(F)F)ccn2)c1` (stereo not drawn) [Example 104, 2-{1-[(5-methoxy-1,2,3,4-tetrahydronaphthalen-1-yl)methyl]-1H-imidazol-4-yl}-4-[5-(trifluoromethyl)-1H-1,2,3-triazol-4-yl]pyridine], with less than 5.00; and `COc1ccc2c(c1)CCCC2Cn1cnc(-c2cc(-c3nn[nH]c3C(F)(F)F)ccn2)c1` (stereo not drawn) [Example 105, 2-{1-[(6-methoxy-1,2,3,4-tetrahydronaphthalen-1-yl)methyl]-1H-imidazol-4-yl}-4-[5-(trifluoromethyl)-1H-1,2,3-triazol-4-yl]pyridine], with less than 5.00.
Then `COc1ccc2c(c1)C(Cn1cnc(-c3cc(-c4nn[nH]c4C(F)(F)F)ccn3)c1)CCC2` (stereo not drawn) [Example 106, 2-{1-[(7-methoxy-1,2,3,4-tetrahydronaphthalen-1-yl)methyl]-1H-imidazol-4-yl}-4-[5-(trifluoromethyl)-1H-1,2,3-triazol-4-yl]pyridine], with less than 5.00; and `COc1cccc2c1C(Cn1cnc(-c3cc(-c4nn[nH]c4C(F)(F)F)ccn3)c1)CCC2` (stereo not drawn) [Example 107, 2-{1-[(8-methoxy-1,2,3,4-tetrahydronaphthalen-1-yl)methyl]-1H-imidazol-4-yl}-4-[5-(trifluoromethyl)-1H-1,2,3-triazol-4-yl]pyridine], with less than 5.00.
